Assay in all cases: Affinity-purification and mass spectrometry (AP-MS) chemical proteomics, all proteins;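 as to Difference: 200 µM free competitor with 20 µM biotin probe overnight in lysate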
Holding throughout (format): binding

Experiment [1] addresses T1, proteins displaced from immobilized biotin-Cmpd 1 pulldowns (U2OS cell lysate) (Homo sapiens, UniProt Q9BSJ8).
T1 construct: endogenous in cells; host or cells: U2OS
The conditions noted are these: GN=ESYT1 (Q9BSJ8). On the procedure: (§1) The samples for AP-MS were prepared following pulldown procedure as previously described with minor modifications. Briefly, U2OS cells were lysed in RIPA buffer and the cell lysate was equally divided into two groups: (1) DMSO group (control group): the cell lysate was incubated with 20 μM biotin-labeled compound 1; (2) Cpmd 1 group (sample group): the cell lysate was incubated with 20 μM biotin-labeled compound 1 and 200 μM free compound 1. Each group contains three biological replicates. They were incubated overnight at 4 °C, then 30 μL streptavidin beads (Thermo Fisher, 20353) was added and incubated at 4 °C for 1 h. The beads were then washed with RIPA buffer for 3 times, 10 min/time.
(§2) Beads were rinsed twice with 50 mM TEAB, pH 7.55, before eluting proteins with 25 μL of 5% SDS, 50 mM TEAB, pH 7.55. The sample was then centrifuged at 17,000 × g for 10 min to remove any debris. Proteins were reduced with 20 mM TCEP (Thermo Fisher, 77720) and incubated at 65 °C for 30 min. The sample was cooled to room temperature and 1 μL of 0.5 M iodoacetamide acid was added and allowed to react for 20 min in dark. Phosphoric acid (12%, 2.75 μL) was added to the protein solution, followed by adding 165 μL of binding buffer (90% methanol, 100 mM TEAB, pH 7.1). The resulting solution was added to S-Trap spin column (protifi.com) and passed through the column using a bench top centrifuge (30 s spin at 4000 × g). The spin column was washed with 400 μL of binding buffer and centrifuged. This step was repeated two more times. Then trypsin was added to the protein mixture at a mass ratio of 1:25 in 50 mM TEAB, pH 8.0, and the sample was incubated at 37 °C for 4 h. Peptides were eluted with 80 μL of 50 mM TEAB, followed by 80 μL of 0.2% formic acid, and finally 80 μL of 50% acetonitrile, 0.2% formic acid. The combined peptide solution was then dried in a speed vac and resuspended in 2% acetonitrile, 0.1% formic acid, 97.9% water and placed in an autosampler vial.
(§3) Samples were analyzed by nanoLC-MS/MS (nanoRSLC, Thermo Fisher) using an Aurora series (Ion Opticks) reversed phase HPLC column (25 cm length × 75 µm inner diameter) and directly injected to an Orbitrap Eclipse (Thermo Fisher) using a 120 min gradient (mobile phase A = 0.1% formic acid, mobile phase B = 99.9% acetonitrile with 0.1% formic acid; hold 2% B for 5 min, 2–6% B in 0.1 min, 6–25% in 100 min, 25–50% in 15 min) at a flow rate of 350 nL/min. Eluted peptide ions were analyzed using a data-dependent acquisition (DDA) method with resolution settings of 120,000 and 15,000 (at m/z 200) for MS1 and MS2 scans, respectively. DDA-selected peptides were fragmented using stepped high energy collisional dissociation (27, 32, and 37%).
(§4) The data of AP-MS were analyzed as a previously described method with minor modifications. Briefly, the raw MS files were searched with MaxQuant software (version 1.6.1.1, www.maxquant.org)[56] against the UniProt human protein database (www.uniprot.org) concatenated with common contaminants and the decoy database. The mass tolerance for precursor ions was set to 20 ppm and 4.5 ppm for the first and main search, respectively. The cysteine carbamidomethylation was set as fixed modification and methionine oxidation and N-terminal acetylation as variable modifications. Enzyme specificity was set to trypsin and a maximum missed cleavage was set as 2. The 1% false discovery rate (FDR) at both peptide and protein levels was applied for the analysis. Relative protein quantification was based on the label-free quantification incorporated in the MaxQuant software. The iBAQ intensity of proteins was obtained for the control and experimental samples. The missing iBAQ intensity was replaced by a random number, which was calculated from a normal distribution with a width of 0.3 and a downshift of 1.8 defined by Perseus software (version 1.6.5.0). The P-value was calculated by performing two-sample Student’s t-test. […]

Experiment [2] addresses T2, proteins displaced from immobilized biotin-Cmpd 1 pulldowns (U2OS cell lysate) (Homo sapiens, UniProt Q9NUQ6).
T2 construct: endogenous in cells; host or cells: U2OS
The conditions noted are these: GN=SPATS2L (Q9NUQ6). On the procedure: as §1, §2, §3, §4

The target in experiment [3] is T3, proteins displaced from immobilized biotin-Cmpd 1 pulldowns (U2OS cell lysate) (Homo sapiens, UniProt O43684).
T3 construct: endogenous in cells; host or cells: U2OS
Particulars: GN=BUB3 (O43684). As for the experimental part: as §1, §2, §3, §4

Experiment [4] concerns the target T4, proteins displaced from immobilized biotin-Cmpd 1 pulldowns (U2OS cell lysate) (Homo sapiens, UniProt Q7Z2W9).
T4 construct: endogenous in cells; host or cells: U2OS
Particulars: GN=MRPL21 (Q7Z2W9). On the procedure:
as §1, §2, §3, §4

Experiment [5] deals with T5, proteins displaced from immobilized biotin-Cmpd 1 pulldowns (U2OS cell lysate) (Homo sapiens, UniProt P07339).
T5 construct: endogenous in cells; host or cells: U2OS
The conditions noted are these: GN=CTSD (P07339). As for the experimental part:
as §1, §2, §3, §4

In experiment [6] the target is T6, proteins displaced from immobilized biotin-Cmpd 1 pulldowns (U2OS cell lysate) (Homo sapiens, UniProt Q13200).
T6 construct: endogenous in cells; host or cells: U2OS
The conditions noted are these: GN=PSMD2 (Q13200). As for the experimental part:
as §1, §2, §3, §4

In experiment [7] the target is T7, proteins displaced from immobilized biotin-Cmpd 1 pulldowns (U2OS cell lysate) (Homo sapiens, UniProt Q96HE9).
T7 construct: endogenous in cells; host or cells: U2OS
The conditions noted are these: GN=PRR11 (Q96HE9). On the procedure:
as §1, §2, §3, §4

Experiment [8] concerns the target T8, proteins displaced from immobilized biotin-Cmpd 1 pulldowns (U2OS cell lysate) (Homo sapiens, UniProt P10599).
T8 construct: endogenous in cells; host or cells: U2OS
The conditions noted are these: GN=TXN (P10599). As for the experimental part:
as §1, §2, §3, §4

Experiment [9] concerns the target T9, proteins displaced from immobilized biotin-Cmpd 1 pulldowns (U2OS cell lysate) (Homo sapiens, UniProt P61313).
T9 construct: endogenous in cells; host or cells: U2OS
Particulars: GN=RPL15 (P61313). On the procedure:
as §1, §2, §3, §4

Experiment [10] deals with T10, proteins displaced from immobilized biotin-Cmpd 1 pulldowns (U2OS cell lysate) (Homo sapiens, UniProt P38646).
T10 construct: endogenous in cells; host or cells: U2OS
Particulars: GN=HSPA9 (P38646). On the procedure: as §1, §2, §3, §4

Each structure is given as a SMILES string. “And” between values parts separate entries of the source, which are not always exact repeats. Equal entries are not always repeated.

T8 sequence (P10599 whole entry): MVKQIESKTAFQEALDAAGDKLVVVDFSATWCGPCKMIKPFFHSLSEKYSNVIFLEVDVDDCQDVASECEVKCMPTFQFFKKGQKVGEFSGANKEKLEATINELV
T10 sequence (P38646 47-679): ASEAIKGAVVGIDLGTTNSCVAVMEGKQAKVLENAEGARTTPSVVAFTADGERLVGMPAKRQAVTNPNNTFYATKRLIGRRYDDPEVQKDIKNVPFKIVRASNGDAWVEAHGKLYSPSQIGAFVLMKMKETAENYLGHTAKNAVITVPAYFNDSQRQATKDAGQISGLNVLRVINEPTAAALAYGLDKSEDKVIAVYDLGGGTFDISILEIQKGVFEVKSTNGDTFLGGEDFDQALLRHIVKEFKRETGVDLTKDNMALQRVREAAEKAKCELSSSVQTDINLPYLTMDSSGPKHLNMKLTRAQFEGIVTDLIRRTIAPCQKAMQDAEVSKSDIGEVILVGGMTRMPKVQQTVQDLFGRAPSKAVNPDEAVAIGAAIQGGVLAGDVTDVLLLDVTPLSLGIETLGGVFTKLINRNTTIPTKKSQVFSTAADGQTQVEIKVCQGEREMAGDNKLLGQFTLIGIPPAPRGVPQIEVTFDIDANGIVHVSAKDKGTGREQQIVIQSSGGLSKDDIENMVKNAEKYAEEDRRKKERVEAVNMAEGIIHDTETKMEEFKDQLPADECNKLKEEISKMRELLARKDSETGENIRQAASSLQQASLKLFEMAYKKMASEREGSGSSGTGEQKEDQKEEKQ
T7 sequence (Q96HE9 whole entry): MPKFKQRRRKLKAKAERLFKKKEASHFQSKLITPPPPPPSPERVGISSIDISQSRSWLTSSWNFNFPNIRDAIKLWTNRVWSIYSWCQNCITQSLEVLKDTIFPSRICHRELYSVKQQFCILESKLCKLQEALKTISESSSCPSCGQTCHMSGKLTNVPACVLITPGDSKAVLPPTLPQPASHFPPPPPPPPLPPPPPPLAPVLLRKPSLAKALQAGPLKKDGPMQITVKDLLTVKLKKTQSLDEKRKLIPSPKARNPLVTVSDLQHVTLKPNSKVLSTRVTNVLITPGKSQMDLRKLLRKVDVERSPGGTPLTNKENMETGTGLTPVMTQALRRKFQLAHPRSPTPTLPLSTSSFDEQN
T3 sequence (O43684 whole entry): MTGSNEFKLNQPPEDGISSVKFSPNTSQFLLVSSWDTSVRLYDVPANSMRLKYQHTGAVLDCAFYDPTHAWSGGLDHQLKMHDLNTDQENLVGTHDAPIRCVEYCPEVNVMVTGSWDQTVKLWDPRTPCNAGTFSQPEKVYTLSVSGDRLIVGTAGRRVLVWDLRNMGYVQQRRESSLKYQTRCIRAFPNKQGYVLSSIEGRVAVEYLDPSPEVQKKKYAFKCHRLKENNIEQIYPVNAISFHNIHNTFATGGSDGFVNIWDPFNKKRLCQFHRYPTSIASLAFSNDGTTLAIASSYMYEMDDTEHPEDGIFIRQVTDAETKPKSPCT
T6 sequence (Q13200 whole entry): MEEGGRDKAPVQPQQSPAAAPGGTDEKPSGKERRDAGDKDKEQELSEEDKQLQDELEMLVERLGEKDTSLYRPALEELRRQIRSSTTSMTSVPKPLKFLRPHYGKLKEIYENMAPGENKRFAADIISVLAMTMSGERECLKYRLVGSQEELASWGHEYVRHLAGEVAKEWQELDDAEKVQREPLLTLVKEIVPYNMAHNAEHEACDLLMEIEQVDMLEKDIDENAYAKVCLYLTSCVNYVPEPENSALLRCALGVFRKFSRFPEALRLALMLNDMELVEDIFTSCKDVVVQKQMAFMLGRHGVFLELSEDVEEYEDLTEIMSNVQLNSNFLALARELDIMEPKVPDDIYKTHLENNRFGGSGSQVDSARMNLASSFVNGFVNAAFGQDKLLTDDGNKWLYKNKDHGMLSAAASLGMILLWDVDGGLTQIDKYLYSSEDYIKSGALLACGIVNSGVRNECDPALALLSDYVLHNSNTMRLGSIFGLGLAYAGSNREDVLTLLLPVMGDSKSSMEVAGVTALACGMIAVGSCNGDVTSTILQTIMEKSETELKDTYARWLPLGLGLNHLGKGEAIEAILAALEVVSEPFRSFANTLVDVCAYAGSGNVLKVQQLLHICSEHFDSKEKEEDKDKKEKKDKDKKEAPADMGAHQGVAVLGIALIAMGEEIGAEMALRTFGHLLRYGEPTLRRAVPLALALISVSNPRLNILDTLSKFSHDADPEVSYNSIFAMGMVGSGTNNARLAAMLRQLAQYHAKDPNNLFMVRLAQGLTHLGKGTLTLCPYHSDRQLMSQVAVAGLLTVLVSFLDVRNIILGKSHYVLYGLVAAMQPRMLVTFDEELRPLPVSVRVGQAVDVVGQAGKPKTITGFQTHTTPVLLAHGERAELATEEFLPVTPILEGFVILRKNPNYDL
T2 sequence (Q9NUQ6 whole entry): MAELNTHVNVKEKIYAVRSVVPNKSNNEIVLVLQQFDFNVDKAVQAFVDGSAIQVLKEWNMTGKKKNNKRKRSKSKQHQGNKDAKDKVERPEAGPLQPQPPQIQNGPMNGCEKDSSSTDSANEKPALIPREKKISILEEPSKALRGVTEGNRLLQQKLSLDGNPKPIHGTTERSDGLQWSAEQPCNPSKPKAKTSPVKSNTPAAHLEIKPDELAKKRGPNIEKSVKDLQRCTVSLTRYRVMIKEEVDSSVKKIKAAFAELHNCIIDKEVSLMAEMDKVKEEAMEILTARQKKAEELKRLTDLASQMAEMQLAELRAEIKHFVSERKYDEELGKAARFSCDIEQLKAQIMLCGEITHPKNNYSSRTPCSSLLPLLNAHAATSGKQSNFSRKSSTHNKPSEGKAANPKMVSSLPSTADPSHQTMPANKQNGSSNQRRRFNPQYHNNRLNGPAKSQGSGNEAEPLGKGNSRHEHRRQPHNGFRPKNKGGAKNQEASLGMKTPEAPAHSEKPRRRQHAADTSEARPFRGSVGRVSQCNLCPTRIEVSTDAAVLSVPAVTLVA
T5 sequence (P07339 65-412): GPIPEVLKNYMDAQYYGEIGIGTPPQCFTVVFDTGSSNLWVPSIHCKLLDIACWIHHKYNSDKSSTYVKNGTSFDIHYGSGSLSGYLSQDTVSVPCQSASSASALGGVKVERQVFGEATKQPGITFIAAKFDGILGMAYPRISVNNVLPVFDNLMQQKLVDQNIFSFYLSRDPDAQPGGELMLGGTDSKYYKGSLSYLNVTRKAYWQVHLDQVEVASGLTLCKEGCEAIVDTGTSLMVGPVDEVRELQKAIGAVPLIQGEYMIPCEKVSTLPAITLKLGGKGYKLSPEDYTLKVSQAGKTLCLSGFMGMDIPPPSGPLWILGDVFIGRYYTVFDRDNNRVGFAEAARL
T1 sequence (Q9BSJ8 whole entry): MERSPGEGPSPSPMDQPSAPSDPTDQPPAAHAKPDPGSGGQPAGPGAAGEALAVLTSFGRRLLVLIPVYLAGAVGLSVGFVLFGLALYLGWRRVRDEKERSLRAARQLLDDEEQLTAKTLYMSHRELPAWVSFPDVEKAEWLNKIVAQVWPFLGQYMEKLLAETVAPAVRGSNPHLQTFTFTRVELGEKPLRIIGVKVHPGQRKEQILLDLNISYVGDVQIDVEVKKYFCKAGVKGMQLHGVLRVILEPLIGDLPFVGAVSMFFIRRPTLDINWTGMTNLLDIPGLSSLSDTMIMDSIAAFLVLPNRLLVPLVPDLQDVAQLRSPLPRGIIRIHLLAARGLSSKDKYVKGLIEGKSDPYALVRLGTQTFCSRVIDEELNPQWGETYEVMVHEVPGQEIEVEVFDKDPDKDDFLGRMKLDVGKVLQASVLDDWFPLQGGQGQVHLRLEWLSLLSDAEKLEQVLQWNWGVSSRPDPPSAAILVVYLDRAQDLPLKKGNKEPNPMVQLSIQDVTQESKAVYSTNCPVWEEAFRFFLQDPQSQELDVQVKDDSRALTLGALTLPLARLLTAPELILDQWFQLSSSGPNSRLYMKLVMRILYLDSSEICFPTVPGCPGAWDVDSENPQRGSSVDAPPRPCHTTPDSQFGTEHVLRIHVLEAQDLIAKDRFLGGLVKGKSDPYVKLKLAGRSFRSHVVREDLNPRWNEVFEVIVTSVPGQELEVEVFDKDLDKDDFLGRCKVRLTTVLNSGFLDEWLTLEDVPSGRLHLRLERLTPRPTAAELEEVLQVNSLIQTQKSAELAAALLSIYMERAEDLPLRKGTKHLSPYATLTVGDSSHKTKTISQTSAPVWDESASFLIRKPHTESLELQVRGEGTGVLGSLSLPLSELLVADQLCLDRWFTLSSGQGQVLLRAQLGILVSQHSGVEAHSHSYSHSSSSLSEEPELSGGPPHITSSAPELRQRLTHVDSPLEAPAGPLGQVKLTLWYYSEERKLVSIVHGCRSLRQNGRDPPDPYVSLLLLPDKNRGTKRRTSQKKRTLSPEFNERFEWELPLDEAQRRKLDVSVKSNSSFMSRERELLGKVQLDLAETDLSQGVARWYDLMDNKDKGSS

Turning to `Cn1c2c(c(=N)c3c1CCC3)CCC2` [Compound 1, 4-methyl-2,3,4,5,6,7-hexahydrodicyclopenta[b,e]pyridin-8(1H)-imine], the Difference in experiment [1] (Cmpd minus DMSO, -LOG(P-value) 2.56654) was 4.81; in experiment [2] (Cmpd minus DMSO, -LOG(P-value) 0.875271), 3.1666; in experiment [3] (Cmpd minus DMSO, -LOG(P-value) 1.63376), 1.137; in experiment [4] (Cmpd minus DMSO, -LOG(P-value) 0.745191), 1.429; in experiment [5] (Cmpd minus DMSO, -LOG(P-value) 0.933319), -3.118; in experiment [6] (Cmpd minus DMSO, -LOG(P-value) 1.86828), -0.9512. For the same molecule, the Difference in [7] (Cmpd minus DMSO, -LOG(P-value) 0.979867) is on record as 2.154; in experiment [8] (Cmpd minus DMSO, -LOG(P-value) 1.02279) it was -1.031; in experiment [9] (Cmpd minus DMSO, -LOG(P-value) 0.777225), -0.7361; in [10] (Cmpd minus DMSO, -LOG(P-value) 0.718324), 0.7463. In addition, the “iBAQ Cmpd” value in experiment [1] (replicates 1-3) was 19.5229 and 18.9864 and 18.8876; in [2] (replicates 1-3), 21.4367 and 18.8839 and 18.3449; in [3] (replicates 1-3) it was 19.492 and 19.0748 and 18.4379; in experiment [4] (replicates 1-3), 17.7953 and 15.5869 and 17.7004; in [5] (replicates 1-3) it was 18.4576 and 18.593 and 15.0798; in experiment [6] (replicates 1-3), 17.2697 and 17.2993 and 16.9257. Further, the “iBAQ Cmpd” value in experiment [7] (replicates 1-3) is 17.2458 and 16.9213 and 18.1218; in experiment [8] (replicates 1-3), 20.7578 and 20.8108 and 19.926; in [9] (replicates 1-3) it was 21.3956 and 22.1107 and 21.8582; in [10] (replicates 1-3), 19.8777 and 19.6433 and 19.5335.

For the origin of these results see paper PMC9481570, “A small molecule antagonist of SMN disrupts the interaction between SMN and RNAP II” (Nature Communications, 2022).
